# Several values for one entry are separate records, joined by “and”; a condition that tells them apart may be missing. Identical values can stand only once. Like-named read-outs stand apart in the source and are kept apart here.
# Experiments:
# [1] = Single dose oral PK study in male Sprague Dawley rats (plasma by LC-MS/MS); format: in vivo; conditions: for Plasma concentration of PRX-002 (−) Isomer: PRX-002 (−) Isomer oral 5 mg/kg b.w.
# Protocol: We describe here PK results of prodrugs of PRX-002 (−) or (+) isomers. All doses of prodrugs were administered such that they were equivalent to 5 mg/kg of PRX-002 (−) or (+) for oral studies and 2 mg/kg PRX-002 (−) or (+) for intravenous studies in male Sprague-Dawley (MSD) rats. Higher doses of up to 10 or 15 mg/kg [again equivalent to PRX-002 (−)] were used in some studies (as specified)]. Formulation preparation, dose administration and time of sample collection was as follows.
# Test item was weighed [5 mg equivalent dose of PRX-002 for prodrugs] and transferred to a graduated tube. Then 10 μL of Tween 80 was added and vortexed mixed until the test item was completely mixed. Small volume of 0.5% (w/v) carboxymethylcellulose in water solution was then added dropwise with continuous vortex mixing until a uniform suspension was obtained. The final volume was then made up to 10 mL with 0.5% (w/v) carboxymethylcellulose in water with final strength of 0.5 mg/mL. […] This formulation was freshly prepared before the administration to animals.
# (§1) Adult male Sprague Dawley Rats aged 8-10 weeks were used for the study. Fasted animals were administered test item by oral route with a dose of 5 mg/kg body weight at dose volume of 10 mL/kg body weight. Under mild isoflurane anesthesia, blood specimens were collected by retro-orbital puncture method using capillary tubes into pre-labeled tubes containing anticoagulant (K2EDTA-2 mg/mL blood) during the next 24 hours of post dose as mentioned in below table. For blood sampling at multiple time points, right and left eyes were used alternatively for blood collection. Collected blood specimens were centrifuged at 4000 rpm, 4° C. for 10 minutes and plasma were separated and stored at −80° C. until analysis.
# Blood was collected as outlined in Table 39.1 (oral).
# (§2) Test item PRX-P4-003 was weighed and transferred to a graduated tube. Then 12.42 μL of Tween 80 was added and vortexed mixed until the test item was completely mixed. Small volume of 0.5% (w/v) Carboxymethylcellulose in water solution was then added dropwise with continuous vortex mixing until a uniform suspension was obtained. The final volume was then made up to 12.42 mL with 0.5% (w/v) Carboxymethylcellulose in water with final strength of 1.0 mgA/mL. […] This formulation was freshly prepared before the administration to animals.
# as §1, with “with a PRX-P4-003” for “test item”, “10” for “5”
# as §2, with “PRX-P5-006” for “PRX-P4-003”, “10” for “12.42”, “3.97 mg/mL.” for “1.0 mgA/mL.”
# Adult male Sprague Dawley Rats aged 8-10 weeks were used for the study. Fasted animals were administered with a PRX-P5-006 by oral route with a dose of 15 mg/kg body weight at dose volume of 10 mL/kg body weight. […]
# [2] = tested on: spontaneous locomotor activity; assay: Spontaneous locomotor activity (sLMA), intravenous administration; format: in vivo, Male SD rats; conditions: i.v. 2 mg/kg, 90 min recording, vs vehicle
# Protocol: Male SD rats were intravenously administered with PRX-002(−) (2 mg/kg) and prodrug PRX-P4-003 [(25.8 mg/kg, equivalent to 10 mg/kg of PRX-002 (−)], and vehicle just before sLMA test.
# Vehicle was: 10% PEG 400 (v/v)+30% (v/v) of (50% w/v) Hydroxypropyl-ß-cyclodextrin in water+60% (v/v) sterile water for injection (SWFI): 1 ml/kg volume.
# PRX-P4-003 solution was: 25.8 mg/ml PRX-P4-003 (25.8 mg/kg: equivalent to 10 mg/ml active drug, i.v. @volume of 1 ml/kg). 42.3 mg PRX-P4-003 was added to vehicle 1.639 ml, vortexed for 30 min under room temperature to get a uniform suspension solution, suspension solution was continuously stirred during dosage.
# The PRX-P4-002(−) solution was: 2 mg/ml PRX-P4-002(−) (2 mg/kg, i.v.@volume of 1 ml/kg). 4.5 mg PRX-002(−) was added to 2.25 ml Vehicle, vortexed for 30 min under room temperature to get a clear solution, the solution was continuously stirred during dosage.
# Rat was placed at the center of test chamber for the 90 min sLMA video recording. (n=3/group).
# [3] = single oral dose 5 mg/kg body weight, individual animals (R0175, R0176, R0177), plasma, 5 mg/kg
structure (smiles),measurement,setting,value
"CCN[C@H]1[C@H]2CC[C@H](C2)[C@@H]1c1ccccc1 [PRX-002 (+) Isomer, (1S,2S,3R,4R)—N-Ethyl-3-phenylbicyclo[2.2.1]heptan-2-amine, reference compound]",AUC% extrap of PRX-002(+) Isomer,"[1]; PRX-002 (+) Isomer oral 5 mg/kg, mean, listed as PRX-002(+) Isomer, 5 mg/kg",18.063 ±11.646%
same,AUC% extrap of PRX-002(+) Isomer,"[1]; PRX-002 (+) Isomer oral 5 mg/kg, mean, listed as PRX-002 (+isomer), 5 mg/kg",18.063 ± 11.646%
same,AUC(0-inf),"[1]; male, Sprague Dawley, rat, in vivo, po, 5 mg/kg, single oral dose 5 mg/kg b.w., mean plasma PK parameters (mean ± SD), read-out: AUCinf",151 ± 68.6 ng·h/mL
same,AUC(0-t),"[1]; male, Sprague Dawley, rat, in vivo, po, 5 mg/kg, single oral dose 5 mg/kg b.w., mean plasma PK parameters (mean ± SD), read-out: AUClast",128 ± 74.2 ng·h/mL
same,Cmax,"[1]; male, Sprague Dawley, rat, in vivo, po, 5 mg/kg, single oral dose 5 mg/kg b.w., mean plasma PK parameters (mean ± SD), read-out: Cmax",107 ± 25.4 ng/mL
same,MRT last,"[1]; male, Sprague Dawley, rat, in vivo, po, 5 mg/kg, single oral dose 5 mg/kg b.w., mean plasma PK parameters (mean ± SD), read-out: MRTlast",57.4 ± 16.1 min
same,half-life,"[1]; male, Sprague Dawley, rat, in vivo, po, 5 mg/kg, single oral dose 5 mg/kg b.w., mean plasma PK parameters (mean ± SD), read-out: T1/2 (converted)",59.5 ± 13.7 min
same,Cmax,"[1]; male, Sprague Dawley, rat, in vivo, po, 5 mg/kg, single oral dose 5 mg/kg body weight, individual animals (R0175, R0176, R0177), plasma, read-out: Cmax",135 ng/mL
same,MRT last,"[1]; male, Sprague Dawley, rat, in vivo, po, 5 mg/kg, single oral dose 5 mg/kg body weight, individual animals (R0175, R0176, R0177), plasma, read-out: MRTlast",75.6 min
same,half-life,"[1]; male, Sprague Dawley, rat, in vivo, po, 5 mg/kg, single oral dose 5 mg/kg body weight, individual animals (R0175, R0176, R0177), plasma, read-out: T1/2 (converted)",64.2 min
same,AUC(0-inf),"[1]; male, Sprague Dawley, rat, in vivo, po, 5 mg/kg, single oral dose 5 mg/kg body weight, mean of N=3 (Table 39.24), read-out: AUCinf",151 ng·h/mL
same,AUC(0-t),"[1]; male, Sprague Dawley, rat, in vivo, po, 5 mg/kg, single oral dose 5 mg/kg body weight, mean of N=3 (Table 39.24), read-out: AUClast",128 ng·h/mL
same,Cmax,"[1]; male, Sprague Dawley, rat, in vivo, po, 5 mg/kg, single oral dose 5 mg/kg body weight, mean of N=3 (Table 39.24), read-out: Cmax",107 ng/mL
same,MRT last,"[1]; male, Sprague Dawley, rat, in vivo, po, 5 mg/kg, single oral dose 5 mg/kg body weight, mean of N=3 (Table 39.24), read-out: MRTlast",57.4 min
same,half-life,"[1]; male, Sprague Dawley, rat, in vivo, po, 5 mg/kg, single oral dose 5 mg/kg body weight, mean of N=3 (Table 39.24), read-out: T1/2 (converted)",59.5 min
same,Tmax,"[1]; male, Sprague Dawley, rat, in vivo, single oral dose 5 mg/kg body weight, individual animals (R0175, R0176, R0177), plasma, read-out: Tmax",30 min
same,AUC(0-inf),"[1]; male, Sprague-Dawley, rat, in vivo, po, 5 mg/kg, PRX-002 (+) Isomer oral 5 mg/kg, mean, read-out: AUCinf of PRX-002(+) Isomer",151 ± 68.6 ng·h/mL
same,AUC(0-t),"[1]; male, Sprague-Dawley, rat, in vivo, po, 5 mg/kg, PRX-002 (+) Isomer oral 5 mg/kg, mean, read-out: AUClast of PRX-002(+) Isomer",128 ± 74.2 ng·h/mL
same,Cmax,"[1]; male, Sprague-Dawley, rat, in vivo, po, 5 mg/kg, PRX-002 (+) Isomer oral 5 mg/kg, mean, read-out: Cmax of PRX-002(+) Isomer",107 ± 25.4 ng/mL
same,MRT last,"[1]; male, Sprague-Dawley, rat, in vivo, po, 5 mg/kg, PRX-002 (+) Isomer oral 5 mg/kg, mean, read-out: MRTlast of PRX-002(+) Isomer",57.4 ± 16.1 min
same,half-life,"[1]; male, Sprague-Dawley, rat, in vivo, po, 5 mg/kg, PRX-002 (+) Isomer oral 5 mg/kg, mean, read-out: T1/2 of PRX-002(+) Isomer (converted)",59.5 ± 13.7 min
same,Tmax,"[1]; male, Sprague-Dawley, rat, in vivo, PRX-002 (+) Isomer oral 5 mg/kg, mean, read-out: Tmax of PRX-002(+) Isomer",30 min
same,AUC% extrap,"[1]; single oral dose 5 mg/kg b.w., mean plasma PK parameters (mean ± SD)",18.063 ± 11.646%
same,AUC% extrap,[1]; [3],6.89% and 30.13% and 17.17%
same,AUCinf,[1]; [3],229.43 ng·h/mL and 124.51 ng·h/mL and 100.4 ng·h/mL
same,AUClast,[1]; [3],213.62 ng·h/mL and 87 ng·h/mL and 83.16 ng·h/mL
same,Cmax,[1]; [3],85.44 ng/mL and 99.85 ng/mL
same,MRTlast,[1]; [3],51.6 min and 45 min
same,T1/2,[1]; [3],70.2 min and 44.4 min
same,AUC% extrap,"[1]; single oral dose 5 mg/kg body weight, mean of N=3 (Table 39.24)",18.063%
"CCN[C@@H]1[C@@H]2CC[C@@H](C2)[C@H]1c1ccccc1 [PRX-002 (−) Isomer, (1R,2R,3S,4S)—N-Ethyl-3-phenylbicyclo[2.2.1]heptan-2-amine, reference compound]",Plasma concentration of PRX-002 (−) Isomer,"[1]; 0.00 h, mean",0.00
same,Plasma concentration of PRX-002 (−) Isomer,"[1]; 0.08 h, mean",0.00
same,Plasma concentration of PRX-002 (−) Isomer,"[1]; 0.25 h, mean",50.20
same,Plasma concentration of PRX-002 (−) Isomer,"[1]; 0.50 h, mean",159.35
same,Plasma concentration of PRX-002 (−) Isomer,"[1]; 1.00 h, mean",170.35
same,Plasma concentration of PRX-002 (−) Isomer,"[1]; 2.00 h, mean",101.07
same,Plasma concentration of PRX-002 (−) Isomer,"[1]; 4.00 h, mean",21.30
same,Plasma concentration of PRX-002 (−) Isomer,"[1]; 6.00 h, mean",0.00
same,Plasma concentration of PRX-002 (−) Isomer,"[1]; 24.00 h, mean",0.00
same,AUC% extrap of PRX-002 (−) Isomer,"[1]; PRX-002 (−) Isomer oral 5 mg/kg, mean",12.904 ± 1.8410%
same,AUC(0-inf),"[1]; male, Sprague Dawley, rat, in vivo, po, 5 mg/kg, PRX-002 (−) Isomer oral 5 mg/kg, mean, read-out: AUCinf of PRX-002 (−) Isomer",427 ± 122 ng·h/mL
same,AUC(0-t),"[1]; male, Sprague Dawley, rat, in vivo, po, 5 mg/kg, PRX-002 (−) Isomer oral 5 mg/kg, mean, read-out: AUClast of PRX-002 (−) Isomer",371 ± 99.5 ng·h/mL
same,Cmax,"[1]; male, Sprague Dawley, rat, in vivo, po, 5 mg/kg, PRX-002 (−) Isomer oral 5 mg/kg, mean, read-out: Cmax of PRX-002 (−) Isomer",176 ± 47.5 ng/mL
same,MRT last,"[1]; male, Sprague Dawley, rat, in vivo, po, 5 mg/kg, PRX-002 (−) Isomer oral 5 mg/kg, mean, read-out: MRTlast of PRX-002 (−) Isomer",88.4 ± 6.24 min
same,half-life,"[1]; male, Sprague Dawley, rat, in vivo, po, 5 mg/kg, PRX-002 (−) Isomer oral 5 mg/kg, mean, read-out: T1/2 of PRX-002 (−) Isomer (converted)",112 ± 7.92 min
same,Tmax,"[1]; male, Sprague Dawley, rat, in vivo, PRX-002 (−) Isomer oral 5 mg/kg, mean, read-out: Tmax of PRX-002 (−) Isomer",50 ± 17.3 min
same,Spontaneous locomotor activity (sLMA): total traveling distance and duration,[2],significantly increased sLMA

# — US10662146B2, “Prodrugs of fencamfamine” (Praxis Bioresearch, LLC, priority 2015, dated 2020)
